Data: patent publication US9682033B2, “Methods of treating postherpetic neuralgia with a topical formulation of a spiro-oxindole compound” (Teva Pharmaceuticals International GmbH, priority 2015, dated 2017)
Entries after “also recorded” stand apart in the source; their conditions may differ.

Tests used:
[1] = system: streptozotocin-induced neuropathic pain model; test: Streptozotocin-induced neuropathic pain model, mechanical allodynia (paw withdrawal threshold); assay type: in vivo, rats; conditions: topical, diabetic neuropathic pain model
Description: Topical 4% Test Pharmaceutical Composition was compared with lidocaine and diclofenac for relief of mechanical allodynia in the streptozotocin-induced neuropathic pain model in rats.

[2] = ADME study in the minipig after repeated daily dermal dosing (Biological Example 1); assay type: in vivo, Göttingen minipig; conditions: for mean tissue radioactivity concentration / total radioactivity in tissue: 24 h after [^14C] dermal dose
Description: On the day prior to the first dermal dose, the dorsum and flanks of each animal were carefully clipped using electric clippers and shaved using an electric rotary head shaver (Phillips). Clipping and shaving was as close as possible to the skin, whilst avoiding damage to the dose site. […] The corners of the treatment area (equivalent to about 6% body surface area, 11 cm×19 cm-12 cm×22 cm) were marked using an indelible pen. The process of hair removal was repeated periodically during the dose administration period as necessary.

[3] = Joint penetration and tissue distribution study in domestic pig, multiple-dose topical administration (Biological Example 2); assay type: in vivo
Experimental: This study was conducted to evaluate the joint penetration, systemic plasma exposure and tissue distribution of the spiro-oxindole compound in domestic pigs following topical administration of a pharmaceutical composition utilized in the methods of the invention. Fifteen female pigs were used in this study with three pigs in each group. Beginning on Day 1, a pharmaceutical composition of the invention was topically applied to the left radiocarpal joint (carpus) and tibiotarsal joint (hock) twice daily (bid) for 17 days (34 applications) for Groups 1-4 and once daily (qd) for 17 days (17 applications) for Group 5. Pre-dose blood samples (prior to morning dosing) was collected on Days 2, 7, 10, 14 and 17. A full pharmacokinetic sampling was performed on Day 17 (post am dosing) at the following time points: 1, 2, 4, 8 and 12 hr. On the day of necropsy, Day 18, blood was collected prior to euthanasia, each pig was humanely euthanized and dorsal skin and muscle, liver, kidney, heart, lung, brain, intestine, fat, ovaries, urinary bladder, sciatic nerve, and skin, muscle, synovial membrane, and synovial fluid from all 4 joints (2 treated, left carpus and hock, and 2 untreated, right carpus and hock) was collected.
Doses were calculated by measuring the joint circumference and joint width (to include ˜2 cm above and below the joint) to calculate the total surface area for each individual dose. Group 1 received a 2% pharmaceutical composition of the invention and the dose volume for Group 1 was calculated using the total surface area and the designated dose volume of 3 μL/cm^2. The total dose volume was then converted from μL to mL to estimate the dose weight in grams, based on the composition density of 1 g/cm^3. Following is an example (not actual measurements) of calculating the dose:
For Groups 2-5, the dose volume was calculated using the total surface area and the designated dose volume of 3 μL/cm^2 (Groups 2, 3 and 5) or 1 μL/cm^2 (Group 4). […]

[4] = molecular target: CYP450 2C19 (CYP2C19) (Homo sapiens, UniProt P33261); test: Reaction phenotyping with recombinant human CYP450 enzymes: CYP2C19; assay type: in vitro ADME
[5] = Drug-drug interaction study in healthy subjects: pharmacokinetics of the spiro-oxindole compound (Biological Example 5); assay type: in vivo, human
Description: Pharmacokinetic parameters were derived by noncompartmental analysis.

[6] = domestic pig, topical administration to a joint

Chain of CYP450 2C19 (CYP2C19) (P33261 whole entry): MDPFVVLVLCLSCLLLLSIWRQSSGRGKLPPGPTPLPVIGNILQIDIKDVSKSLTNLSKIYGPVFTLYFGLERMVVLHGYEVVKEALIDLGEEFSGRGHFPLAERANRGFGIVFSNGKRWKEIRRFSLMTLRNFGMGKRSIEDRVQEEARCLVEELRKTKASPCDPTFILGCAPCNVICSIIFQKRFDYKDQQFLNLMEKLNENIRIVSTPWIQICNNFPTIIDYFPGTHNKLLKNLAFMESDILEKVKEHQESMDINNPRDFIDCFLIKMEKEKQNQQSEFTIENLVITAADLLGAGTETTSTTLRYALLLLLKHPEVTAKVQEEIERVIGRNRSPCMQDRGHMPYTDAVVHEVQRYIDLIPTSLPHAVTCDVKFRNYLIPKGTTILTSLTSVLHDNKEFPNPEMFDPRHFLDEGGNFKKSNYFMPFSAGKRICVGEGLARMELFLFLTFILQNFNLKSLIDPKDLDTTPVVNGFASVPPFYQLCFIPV

Which results are given for `O=C1N(Cc2ccc(C(F)(F)F)o2)c2ccccc2[C@]12COc1cc3c(cc12)OCO3` [spiro-oxindole compound, (S)-1′-{[5-(trifluoromethyl)furan-2-yl]methyl}spiro[furo[2,3-f][1,3]benzodioxole-7,3′-indol]-2′(1′H)-one]?
efficacy compared with 5% lidocaine [1]: superior efficacy to 5% lidocaine; Cmax ([2]; male, Göttingen, minipig, plasma, topical or ocular, 70 mg ointment/kg, minipigs, 21 days of repeated dermal dosing, read-out: mean maximum observed concentration (Cmax) in plasma): 15 ng/mL; mean tissue radioactivity concentration ([2]; minipig, bone marrow): 154 ng equivalents spiro-oxindole compound/g; mean tissue radioactivity concentration ([2]; minipig, fat (abdominal / white)): 273 ng equivalents spiro-oxindole compound/g; mean tissue radioactivity concentration ([2]; minipig, fat (brown)): 100 ng equivalents spiro-oxindole compound/g; mean tissue radioactivity concentration ([2]; minipig, gall bladder contents): 4870 ng equivalents spiro-oxindole compound/g; total radioactivity in tissue ([2]; minipig, heart): 18.5 ng equiv spiro-oxindole compound/g; total radioactivity in tissue ([2]; minipig, liver): 74.9 ng equiv spiro-oxindole compound/g; mean tissue radioactivity concentration ([2]; minipig, muscle underlying the dose site): 142 ng equivalents spiro-oxindole compound/g; mean tissue radioactivity concentration ([2]; minipig, skin from the dose site): 25500 ng equivalents spiro-oxindole compound/g; mean tissue radioactivity concentration ([2]; minipig, skin remote from the dose site): 111 ng equivalents spiro-oxindole compound/g; systemic exposure (in words) ([2]; minipigs, repeated daily dermal dosing of 8% ointment): low systemic exposure; concentration in the synovial membrane tissue of the treated joint (in words) [3, 6]: micromolar concentrations; plasma concentrations (in words) [3, 6]: nanomolar; spiro-oxindole compound concentration in liver tissue ([3]; pig G2 (#4-6): 4% composition, 3 μL/cm^2 bid topical 17 days, individual animals): 0/0; contribution to spiro-oxindole compound metabolism [4]: major contributors; relationship of exposure with CYP2C19 phenotype [5]: no apparent relationship; mean plasma concentration at the follow-up visit (360±24 hours) ([5]; after final application of 8% composition): 0.32629 ng/mL; Cmax ([5]; both sexes, human, plasma, topical, 8 % composition applied to 53% of BSA, BID, day 9, over 24 hours from the final application, read-out: geometric mean Cmax): 15.1 ng/mL; AUC(0-t) ([5]; both sexes, human, plasma, topical, 8 % composition applied to 53% of BSA, BID, first 12 hours after the final application, read-out: geometric mean AUC0-12): 133 ng·h/mL; concentration at 24 hours ([5]; both sexes, human, plasma, topical, 8 % composition applied to 53% of BSA, day 9, after final application of 8% composition (BID, 53% BSA, 7.5 days), read-out: mean plasma concentration at 24 hours postdose): 11.7 ng/mL; geometric mean Ctrough (predose value) ([5]; day 9, topical 8% composition BID 53% BSA): 12.76052 ng/mL; average concentration over the 12-hour period ([5]; first 12 hours after the final application): 11075.55 pg/mL; steady state (in words) ([5]; topical BID dosing): steady state had not been achieved after 7.5 days of dosing; also recorded: did not reach steady state within 7.5 days
